Reference: ChEMBL document CHEMBL1124648, “Synthesis and biological activity of photoactive derivatives of erythromycin” (J Med Chem, 1989)

Key:
Nucleic Acid [1] = settings: at 1 µM
Description: Inhibition of N-acetylphenylalanine-tRNA peptide bond formation by puromycin reaction at 10E-6 M

Nucleic Acid [2] = settings: at 10 µM
Description: Inhibition of N-acetylphenylalanine-tRNA peptide bond formation by puromycin reaction at 10E-5 M

Nucleic Acid [3] = settings: at 10 µM; remark: listed apart in the source
Description: Inhibition of N-acetylphenylalanine-tRNA peptide bond formation by fragment reaction at 10e-5 M

Molecule | inhibition (Nucleic Acid [1]) [%] | inhibition (Nucleic Acid [2]) [%] | inhibition (Nucleic Acid [3]) [%]
CC[C@H]1OC(=O)[C@H](C)[C@@H](O[C@H]2C[C@@](C)(OC)[C@@H](O)[C@H](C)O2)[C@H](C)[C@@H](O[C@@H]2O[C@H](C)C[C@H](N(C)C)[C@H]2O)[C@@](C)(O)C[C@@H](C)[C@H](NC(=O)COc2cc(N=[N+]=[N-])ccc2CO)[C@H](C)[C@@H](O)[C@]1(C)O | 15 | 23 | 0
SPIRAMYCIN | 53 | 85 | 48
CC[C@H]1OC(=O)[C@H](C)[C@@H](O[C@H]2C[C@@](C)(OC)[C@@H](O)[C@H](C)O2)[C@H](C)[C@@H](O[C@@H]2O[C@H](C)C[C@H](N(C)C)[C@H]2O)[C@@](C)(O)C[C@@H](C)[C@H](NC(=O)CCCOc2ccc([N+](=O)[O-])cc2OC)[C@H](C)[C@@H](O)[C@]1(C)O | 13 | 25 | 11
CC[C@H]1OC(=O)[C@H](C)[C@@H](O[C@H]2C[C@@](C)(OC)[C@@H](O)[C@H](C)O2)[C@H](C)[C@@H](O[C@@H]2O[C@H](C)C[C@H](N(C)C)[C@H]2O)[C@@](C)(O)C[C@@H](C)[C@H](NC(=O)CNC(=O)CCCOc2ccc([N+](=O)[O-])cc2OC)[C@H](C)[C@@H](O)[C@]1(C)O | 18 | 30 | 24
